Laboratory results from patent US20060057669A1, “Inactive transcription factor tif-ia and uses thereof” (priority 2002, published 2006).

How the values were obtained:
Pol I = assay: Co-immunoprecipitation of Pol I with TIF-IA mutants from HEK293T cells; assay type: binding, human
Description: (B) A mutant that mimics phosphorylation of TIF-IA at S199 fails to interact with Pol I and TIF-IB. FLAG-tagged wild-type TIF-IA or the indicated point mutants were overexpressed in HEK293T cells and immunoprecipitated from cell lysates with anti-FLAG antibodies (M2 agarose). Co-precipitated Pol I and TIF-IB/SL1 were visualized on Western blots with anti-RPA116 and anti-TAFI110 antibodies.
Immunoprecipitations were carried out from human cells overexpressing FLAG-tagged TIF-IA. Cells were lysed in IP buffer, cleared by centrifugation at 10,000×g for 30 min, and the supernatants were incubated for 4 hr at 4° C. with anti-FLAG (M2) agarose (Sigma). To analyze the interaction of TIF-IA with TIF-IB/SL1, the immunoprecipitates were washed with IP buffer and TIF-IB/SL1 was visualized on immunoblots with α-TAFI110 antibodies. To monitor the interaction of TIF-IA with Pol I, the immunoprecipitates were washed with IP buffer containing 600 mM NaCl and Pol I was analyzed on Western blots using antibodies against the second largest subunit of Pol I (RPA116) or PAF67 (Seither et al., J. Biol. Chem. 382 (2001), 1163-1170).
Given the importance of mTOR-mediated alterations in the phosphorylation pattern on TIF-IA activity, one could predict that either phosphorylation of S199, dephosphorylation of S44 or both regulate the interaction of TIF-IA with the Pol I transcription apparatus. It was therefore examined whether the S→A or S→D point mutant(s) were capable of interacting with Pol I and/or TIF-IB/SL1. For this, TIF-IA was precipitated from cells overexpressing either FLAG-tagged wild-type TIF-IA or the respective S199 and S44 mutant(s), and co-precipitated Pol I and TIF-IB/SL1 were visualized on Western blots.

HEK293T cells = assay: Quantitative fluorimetric viability assay with calcein-AM; assay type: cell-based; details: 24, 36, 48 and 60 hr after transfection; 2 μM calcein-AM
Pol I transcription = assay: In vitro transcription: TIF-IA mutants added to nuclear extract from exponentially growing FM3A cells; assay type: biochemical, murine; details: 20 and 40 ng added to 15 ug nuclear extract

TIF-IA: wild-type human transcription initiation factor TIF-IA, accession No. AJ272050
interaction with Pol I (co-precipitated RPA116) (Pol I): interacted with both Pol I and TIF-IB/SL1 | cellular growth rate by calcein-AM staining (HEK293T cells): did not affect cell viability and growth | effect on transcriptional activity of extracts from exponentially growing cells (Pol I transcription): not stimulated by exogenous TIF-IA
